Consider ten molecules from patent US5700769A, “Enhancement of enzyme reactions” (Novo Nordisk A/S, priority 1992, dated 1997).

Data set [1] in a line: Decay of oxidized vanillin and 7-hydroxycoumarin from cyclic voltammograms (Example 7). Format: physicochemical. As to conditions: enhancer 2 mM; comparison of experimental with simulated voltammograms. As for the experimental part: The half-life of vanillin and 7-hydroxycoumarin was determined from cyclic voltammograms of the enhancers. The cyclic voltammograms were obtained in a three-electrode system consisting of
(§1) Working electrode Platinum disc
(§2) Counter electrode Platinum wire
(§3) Reference electrode Calomel
The concentration of the enhancers was 2 mM.
The order of the decay reaction of the oxidized enhancers was determined from the dependence of the peak position of the oxidizing peak (Epo) on the scan rate (.nu.). For both enhancers (δEpo /δlog.nu.)=0.019 V in the scan rate range 0.1-1.0 V/s showing that the decay reaction is 2nd order.
The rate constant of the decay reaction of the oxidized enhancers was determined from a comparison of the experimental cyclic voltammograms with simulated voltammograms. The parameters needed for the simulation are the reaction order of the decay reaction, the concentration of the enhancer, the scan rate […] the rate constant for the decay reaction as described in Analytical Chemistry, Vol. 60, p. 1159, 1988.

Data set [2] concerns the target T1, Coprinus cinereus peroxidase (CiP) (Coprinopsis cinerea, UniProt P28314).
T1 construct: made in house
T1 sequence (P28314 21-363): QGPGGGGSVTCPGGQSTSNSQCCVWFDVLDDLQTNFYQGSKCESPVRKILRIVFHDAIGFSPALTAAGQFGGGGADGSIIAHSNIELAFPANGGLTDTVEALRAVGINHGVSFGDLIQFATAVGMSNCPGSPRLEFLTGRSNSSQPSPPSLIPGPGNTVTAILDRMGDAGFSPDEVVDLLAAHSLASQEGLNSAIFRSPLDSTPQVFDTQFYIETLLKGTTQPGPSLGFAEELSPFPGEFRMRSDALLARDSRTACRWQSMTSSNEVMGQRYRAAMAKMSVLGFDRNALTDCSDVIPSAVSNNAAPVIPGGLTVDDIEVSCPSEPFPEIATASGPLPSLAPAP
The data set is described as follows: Initial bleaching of Direct Blue 1 by CiP with enhancer (Example 1). The note with it: 10 μM enhancer, 20 μM H2O2, 30° C., 610 nm. Format: biochemical. The method, then:
The initial bleaching of Direct Blue 1 (DB1) by CiP using a selection of enhancers according to the invention was compared to the half-life of the oxidized enhancer (electron acceptor) measured under standard conditions.
Conditions for bleaching:
200 μl 50 mM Britton-Robinson* buffer
pH 8.5 and 10.5, respectively
After 5 seconds the bleaching was followed for at least 1 minute, and the initial bleaching rates (reduction in milli-absorbance units per minute, -ΔmAbs/min, determined from the initial slope of the absorbance curve) were determined.

The next data set addresses T2, CiP (Coprinopsis cinerea, UniProt P28314).
T2 construct: made in house
T2 sequence (P28314 21-363): T1 sequence (P28314 21-363)
The data set is described as follows: Apparent kinetic constants for oxidation of enhancer by CiP (Example 9). The note with it: pH 8.5, 30° C.; for Kcat (app.): turnover number calculated as Vmax/[CiP]o. The data set is classed as biochemical, Coprinus cinereus. The method, then: (§4) The apparent kinetic constants for the oxidation of some of the enhancers of the invention, 10-ethyl-4-phenothiazinecarboxylic acid (EPC) and 10-phenothiazinepropionic acid (PTP), were determined using CiP (4nM for PTP and 3.1 nM for EPC), borate buffer (10 mM) pH 8.5, H2 O2 (50 μM) and varied concentrations of enhancer, 30° C. Formation of oxidized enhancer was monitored at 514 nm.
(§5) When Kcat (app.) is defined as the turnover number calculated as
(§6) Vmax /[CiP]o, where [CiP]o is the initial concentration of […]

Data set [3] in a line: Half-life of oxidized enhancer from cyclic voltammogram (Example 1). The data set is classed as physicochemical. As to conditions: pH 10.5, enhancer 8 mM. The method, then:
The half-life of the oxidized enhancers were determined from a cyclic voltammogram of the enhancers present at a concentration of 8 mM. The cyclic voltammograms were obtained in a standard three-electrode system consisting of
as §1, §2, §3
The half-life (t1/2) of the oxidized enhancers was calculated from the scan rates (.nu.), peak positions and switching potential in a cyclic voltammogram in which the peak current of the reducing peak had half the value of the peak current of the oxidizing peak. [formula] ΔE is the difference of the peak position of the reducing peak and the switching potential.
The switching potential was fixed at a potential 0.2 V higher than the peak position of the oxidizing peak in a reversible voltammogram. A reversible voltammogram is obtained at scan rates at which the difference between the peak positions of the oxidizing and reducing peak approaches 0.059 V.

The conditions of data set [4]: ESR. As for the experimental part: The stability of the ABTS radical formed by oxidation of ABTS with a recombinantly produced Coprinus cinereus peroxidase (rCiP), obtained according to Example 1, was studied by electron spin resonance technique (ESR). The ESR signal was calculated after 20 scans, where the area under curve corresponds to the concentration of the radical. The signal was integrated from 3260 Gaus to 3300 Gaus.
The stability of the radical was determined in 0.1M Britton & Robinson buffer at different pH values. A concentration of 2.27 mM H2 O2 and an enzyme concentration 34 PODU/ml was applied.
The half-lives in Table 3 measured at different concentrations have for comparison been calculated to a concentration of 250 μM assuming a 2nd order decay.

Data set [5] in a line: Half-life of benzidine derivatives by cyclic voltametri (Example 8). The data set is classed as physicochemical. The note with it: CV in DMF/H2O buffer (1/9), 2 mM, two electron transfer. As for the experimental part: The half-life of the different benzidine derivatives was measured by cyclic voltametri (CV) in DMF/H2 O buffer (1/9) at pH 8.5 and 10.5 as described in. The concentration of the benzidines were 2 mM, and the half-life (t1/2) of the compounds is referring to a two electron transfer.

Substrate in data set [6]: CCN1c2ccccc2Sc2c(C(=O)O)cccc21
The data set is described as follows: Apparent kinetic constants for oxidation of enhancer by CiP (Example 9). Format: biochemical, Coprinus cinereus. As to conditions: other: CiP 4 nM for PTP, 3.1 nM for EPC, borate buffer 10 mM pH 8.5, 50 μM H2O2, 30° C., 514 nm. As for the experimental part: as §4, §5, §6

Substrate in data set [7]: O=C(O)CCN1c2ccccc2Sc2ccccc21
Described as above. As to conditions: other: CiP 4 nM for PTP, 3.1 nM for EPC, borate buffer 10 mM pH 8.5, 50 μM H2O2, 30° C., 514 nm. The data set is classed as biochemical, Coprinus cinereus. The method, then:
as §4, §5, §6

Read-outs that look alike come from different tables or passages of the source.

For the molecule `COc1cc(C=O)ccc1O` [vanillin], the “rate constant for the decay reaction of the oxidized enhancer” value in data set [1] was ~10^8 M^-1 s^-1.
`CN1c2ccccc2Sc2ccccc21` [10-methyl-phenothiazine]: the “bleaching (initial bleaching of Direct Blue 1)” value (shortened to “bleaching”) is reported as 240 -ΔmAbs/min in data set [2] (pH 8.5, 2 nM CiP) and 480 -ΔmAbs/min in data set [2] (pH 10.5, 1 nM CiP).
Take `O=C(O)CCN1c2ccccc2Sc2ccccc21` [10-phenothiazine propionic acid, 10-phenothiazinepropionic acid]: the “bleaching” value in data set [2] (pH 8.5, 2 nM CiP) was 486 -ΔmAbs/min. Besides, in data set [2] (pH 10.5, 1 nM CiP), the “bleaching” value is given as 468 -ΔmAbs/min. Also, at CiP, the “1/kcat (app.)” value is recorded as ~ 1.5 ms and the “Kcat (app.)” value is 671 ± 124 s⁻¹.
Consider `CCN1c2ccccc2Sc2c(C(=O)O)cccc21` [10-ethyl-4-phenothiazine-carboxylic acid, 10-ethyl-4-phenothiazinecarboxylic acid], for which the “bleaching” value is recorded as 816 -ΔmAbs/min in data set [2] (pH 8.5, 2 nM CiP) and 864 -ΔmAbs/min in data set [2] (pH 10.5, 1 nM CiP). Also, in data set [3], the “t1/2 (half-life of the oxidized enhancer)” value amounted to 2.5 s. Also, the “1/kcat (app.)” value at CiP was ~ 1 ms. Also, the “Kcat (app.)” value on CiP was 997 ± 64 s⁻¹.
For `CCn1c(=NN=c2sc3cc(S(=O)(=O)O)ccc3n2CC)sc2cc(S(=O)(=O)O)ccc21` [ABTS, 2,2'-azino-bis (3-ethylbenzothiazoline-6-sulfonate)], the “t1/2 of ABTS radical” value is given as 83 h in data set [4] (pH 3, initial concentration 0.45 mM, 0.1M Britton & Robinson buffer); 66 h in data set [4] (pH 4, initial concentration 0.45 mM); 6.75 h in data set [4] (pH 6, initial concentration 0.45 mM); 1.4 h in data set [4] (pH 7, initial concentration 0.24 mM); 0.67 h in data set [4] (pH 8.7, initial concentration 0.24 mM).
On to `COC(=O)CCN1c2ccccc2Sc2ccccc21` [methyl-10-phenothiazine-propionate], for which the “bleaching” value in data set [2] (pH 8.5, 2 nM CiP) is 72 -ΔmAbs/min; in data set [2] (pH 10.5, 1 nM CiP), 99 -ΔmAbs/min.
`Cc1cc(-c2cc(C)c(N)c(C)c2)cc(C)c1N` [3,3',5,5'-tetramethyl-benzidine, 3,3',5,5'-tetramethylbenzidine]: the “t1/2 (half-life of oxidized enhancer)” value is 4.5 s in data set [5] (pH 8.5) and 5 s in data set [5] (pH 10.5).
Regarding `O=c1ccc2ccc(O)cc2o1` [7-hydroxycoumarin], the “rate constant for the decay reaction of the oxidized enhancer” value in data set [1] is ~10^8 M^-1 s^-1.
Regarding `CC(=O)c1ccc2c(c1)N(C)c1ccccc1S2` [2-acetyl-10-methyl-phenothiazine], the “bleaching” value in data set [2] (pH 8.5, 2 nM CiP) is 27 -ΔmAbs/min; in data set [2] (pH 10.5, 1 nM CiP), 25 -ΔmAbs/min.

B1: CiP (Coprinopsis cinerea) (protein)
chain: T1 sequence (P28314 21-363)
notes: made in house
Turning to B1, the Km came out at 31 µM in data set [6] and 53 µM in data set [7].
